Data from article PMC3382171 (PLoS ONE, 2012).

Legend:
Assay in all cases: biochemical
Details in all cases: read-out: Upstate KSS % inhibition at 1uM
CAMKIIbeta = target: T1, CAMKIIbeta (Homo sapiens, UniProt Q13554)
T1 construct: gene CAMK2B
Experimental: (§1) In these selectivity assays the concentration of ATP was set to the Km value of ATP for each kinase tested to allow for a relative potency comparison between the various kinases. The compounds were tested at 1 µM final concentration. […] (A) Kinase selectivity screen (KSS) performed at Upstate Biotechnology. […] (B) KSS performed at University of Dundee (Division of Signal Transduction Therapy). […] (PDF) Click here for additional data file.

Lyn = Lyn (Homo sapiens, UniProt P07948)
Lyn, sequence (P07948 whole entry): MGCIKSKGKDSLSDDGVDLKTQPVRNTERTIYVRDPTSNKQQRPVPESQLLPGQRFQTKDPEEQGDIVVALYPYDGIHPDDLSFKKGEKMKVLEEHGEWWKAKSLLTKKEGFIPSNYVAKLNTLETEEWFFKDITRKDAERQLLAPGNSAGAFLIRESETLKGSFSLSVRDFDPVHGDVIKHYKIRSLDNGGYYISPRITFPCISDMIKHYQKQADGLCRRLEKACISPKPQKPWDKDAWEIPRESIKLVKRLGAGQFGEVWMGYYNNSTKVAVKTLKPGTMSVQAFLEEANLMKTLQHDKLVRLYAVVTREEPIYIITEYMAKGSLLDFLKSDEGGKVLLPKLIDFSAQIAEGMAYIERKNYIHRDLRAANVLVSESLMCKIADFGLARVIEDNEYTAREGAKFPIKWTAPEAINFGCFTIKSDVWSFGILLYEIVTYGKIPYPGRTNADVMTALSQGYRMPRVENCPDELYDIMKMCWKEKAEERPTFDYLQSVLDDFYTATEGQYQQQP
Experimental: as §1

MAPK2 = target: T2, MAPK2 (Homo sapiens, UniProt P28482)
T2 construct: gene MAPK1
Experimental: as §1

MLCK = target: T3, MLCK (Homo sapiens, UniProt Q15746)
T3 construct: gene MYLK
T3 sequence (Q15746 whole entry): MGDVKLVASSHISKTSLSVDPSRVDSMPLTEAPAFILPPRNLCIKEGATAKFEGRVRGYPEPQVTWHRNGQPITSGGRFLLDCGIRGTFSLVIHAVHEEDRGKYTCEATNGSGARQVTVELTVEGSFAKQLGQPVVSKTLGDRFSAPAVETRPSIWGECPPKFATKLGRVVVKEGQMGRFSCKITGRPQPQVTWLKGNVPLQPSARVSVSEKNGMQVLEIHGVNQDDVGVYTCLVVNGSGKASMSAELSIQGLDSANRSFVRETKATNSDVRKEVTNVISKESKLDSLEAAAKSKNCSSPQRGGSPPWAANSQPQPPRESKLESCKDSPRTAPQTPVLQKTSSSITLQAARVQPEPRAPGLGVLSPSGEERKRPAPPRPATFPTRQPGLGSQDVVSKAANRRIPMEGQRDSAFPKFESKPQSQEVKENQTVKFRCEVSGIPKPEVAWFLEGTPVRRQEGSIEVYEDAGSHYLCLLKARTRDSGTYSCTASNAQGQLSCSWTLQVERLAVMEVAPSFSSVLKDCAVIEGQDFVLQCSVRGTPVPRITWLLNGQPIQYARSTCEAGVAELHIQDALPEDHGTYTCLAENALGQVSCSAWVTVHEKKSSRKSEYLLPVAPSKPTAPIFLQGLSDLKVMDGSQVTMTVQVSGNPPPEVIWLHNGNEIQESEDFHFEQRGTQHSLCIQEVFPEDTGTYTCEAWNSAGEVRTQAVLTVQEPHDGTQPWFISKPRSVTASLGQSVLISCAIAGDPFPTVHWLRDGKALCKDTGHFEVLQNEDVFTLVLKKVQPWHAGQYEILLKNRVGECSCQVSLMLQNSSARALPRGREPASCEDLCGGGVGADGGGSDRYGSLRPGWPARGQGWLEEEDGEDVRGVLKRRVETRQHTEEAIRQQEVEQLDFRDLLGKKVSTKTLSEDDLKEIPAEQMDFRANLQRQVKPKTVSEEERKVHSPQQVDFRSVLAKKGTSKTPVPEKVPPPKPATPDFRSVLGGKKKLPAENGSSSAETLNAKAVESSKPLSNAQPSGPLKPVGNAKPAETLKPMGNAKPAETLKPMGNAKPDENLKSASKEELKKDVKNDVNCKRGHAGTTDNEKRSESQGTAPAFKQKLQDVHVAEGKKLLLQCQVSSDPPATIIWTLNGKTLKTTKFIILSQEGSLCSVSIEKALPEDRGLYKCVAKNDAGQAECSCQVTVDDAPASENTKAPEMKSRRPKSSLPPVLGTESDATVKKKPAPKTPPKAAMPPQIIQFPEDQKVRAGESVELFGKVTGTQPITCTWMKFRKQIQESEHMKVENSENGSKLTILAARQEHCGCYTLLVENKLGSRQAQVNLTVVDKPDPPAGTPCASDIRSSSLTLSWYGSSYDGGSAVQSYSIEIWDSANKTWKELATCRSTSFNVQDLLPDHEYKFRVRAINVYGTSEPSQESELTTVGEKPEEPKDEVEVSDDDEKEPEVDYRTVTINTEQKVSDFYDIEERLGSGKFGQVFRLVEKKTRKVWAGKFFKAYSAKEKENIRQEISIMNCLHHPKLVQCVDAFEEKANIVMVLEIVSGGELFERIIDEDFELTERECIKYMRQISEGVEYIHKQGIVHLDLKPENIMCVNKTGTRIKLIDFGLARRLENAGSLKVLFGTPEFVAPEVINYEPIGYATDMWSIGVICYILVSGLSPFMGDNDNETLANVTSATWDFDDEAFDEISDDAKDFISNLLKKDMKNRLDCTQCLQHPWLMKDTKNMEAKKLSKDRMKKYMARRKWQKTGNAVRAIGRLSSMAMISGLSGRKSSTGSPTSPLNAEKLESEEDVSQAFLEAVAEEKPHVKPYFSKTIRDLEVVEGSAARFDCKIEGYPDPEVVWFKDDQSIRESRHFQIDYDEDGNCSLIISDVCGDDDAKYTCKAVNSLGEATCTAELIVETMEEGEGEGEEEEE
Experimental: as §1

MEK1 = target: T4, MEK1 (Homo sapiens, UniProt Q02750)
T4 construct: gene MAP2K1
Experimental: as §1

CDK7/cyclinH = CDK7/cyclinH (Homo sapiens, UniProt P50613)
Experimental: as §1

PKG1alpha = target: T5, PKG1alpha (Homo sapiens, UniProt Q13976)
T5 construct: gene PRKG1; isoform alpha
Experimental: as §1

PKBbeta = target: T6, PKBbeta (Homo sapiens, UniProt P31751)
T6 construct: gene AKT2
Experimental: as §1

IRAK4 = IRAK4 (Homo sapiens, UniProt Q9NWZ3)
Experimental: as §1

rat CK1delta = target: T7, rat CK1delta (Rattus norvegicus, UniProt Q06486)
T7 construct: gene Csnk1d
Experimental: as §1

SAPK4 = target: T8, SAPK4 (Homo sapiens, UniProt O15264)
T8 construct: gene MAPK13
T8 sequence (O15264 whole entry): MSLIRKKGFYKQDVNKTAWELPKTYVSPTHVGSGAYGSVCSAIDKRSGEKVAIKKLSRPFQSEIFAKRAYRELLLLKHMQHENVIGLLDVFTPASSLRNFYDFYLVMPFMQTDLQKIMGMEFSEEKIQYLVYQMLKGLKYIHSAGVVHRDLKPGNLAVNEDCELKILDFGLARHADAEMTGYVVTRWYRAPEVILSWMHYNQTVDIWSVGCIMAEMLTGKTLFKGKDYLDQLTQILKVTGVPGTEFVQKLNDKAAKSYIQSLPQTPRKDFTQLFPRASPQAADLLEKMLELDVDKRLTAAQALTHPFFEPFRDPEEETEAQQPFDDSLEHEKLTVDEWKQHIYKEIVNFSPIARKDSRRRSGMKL
Experimental: as §1

PKCtheta = target: T9, PKCtheta (Homo sapiens, UniProt Q04759)
T9 construct: gene PRKCQ
T9 sequence (Q04759 whole entry): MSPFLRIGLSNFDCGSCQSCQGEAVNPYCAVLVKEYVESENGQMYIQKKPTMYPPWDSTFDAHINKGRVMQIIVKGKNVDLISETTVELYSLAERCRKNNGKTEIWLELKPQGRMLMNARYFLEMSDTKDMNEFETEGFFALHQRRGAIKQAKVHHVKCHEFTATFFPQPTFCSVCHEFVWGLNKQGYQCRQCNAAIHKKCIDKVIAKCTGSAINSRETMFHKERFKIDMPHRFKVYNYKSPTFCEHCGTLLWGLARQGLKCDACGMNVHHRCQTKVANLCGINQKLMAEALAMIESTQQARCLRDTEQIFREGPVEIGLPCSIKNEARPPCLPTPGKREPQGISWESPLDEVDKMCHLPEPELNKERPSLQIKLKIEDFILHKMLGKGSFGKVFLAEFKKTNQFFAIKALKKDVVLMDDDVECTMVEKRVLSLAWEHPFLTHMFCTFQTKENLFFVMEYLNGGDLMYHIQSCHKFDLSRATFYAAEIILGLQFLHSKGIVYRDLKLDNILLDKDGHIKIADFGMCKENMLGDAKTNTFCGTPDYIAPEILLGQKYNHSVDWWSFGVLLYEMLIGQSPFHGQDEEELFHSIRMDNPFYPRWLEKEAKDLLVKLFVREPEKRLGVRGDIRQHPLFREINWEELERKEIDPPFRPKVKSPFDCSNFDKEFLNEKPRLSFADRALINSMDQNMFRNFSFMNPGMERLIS
Experimental: as §1

Aurora-A = target: T10, Aurora-A (Homo sapiens, UniProt O14965)
T10 construct: gene AURKA
Experimental: as §1

CDK3/cyclinE = CDK3/cyclinE (Homo sapiens, UniProt Q00526)
Experimental: as §1

EPHB2 = EPHB2 (Homo sapiens, UniProt P29323)
Experimental: as §1

FGR = FGR (Homo sapiens, UniProt P09769)
FGR, sequence (P09769 whole entry): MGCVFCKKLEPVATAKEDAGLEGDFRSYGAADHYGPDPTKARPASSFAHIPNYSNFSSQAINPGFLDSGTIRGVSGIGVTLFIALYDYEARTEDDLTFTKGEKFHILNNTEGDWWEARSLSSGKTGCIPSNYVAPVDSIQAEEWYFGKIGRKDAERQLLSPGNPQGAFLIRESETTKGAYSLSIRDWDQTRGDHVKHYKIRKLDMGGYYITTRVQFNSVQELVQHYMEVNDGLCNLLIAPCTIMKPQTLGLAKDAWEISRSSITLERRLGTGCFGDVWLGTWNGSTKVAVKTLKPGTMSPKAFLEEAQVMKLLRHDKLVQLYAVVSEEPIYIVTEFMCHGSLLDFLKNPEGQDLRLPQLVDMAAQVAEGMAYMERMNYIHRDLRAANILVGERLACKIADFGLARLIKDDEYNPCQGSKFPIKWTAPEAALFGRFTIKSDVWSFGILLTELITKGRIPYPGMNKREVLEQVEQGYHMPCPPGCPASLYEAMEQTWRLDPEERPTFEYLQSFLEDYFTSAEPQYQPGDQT
Experimental: as §1

PKBgamma = target: T11, PKBgamma (Homo sapiens, UniProt Q9Y243)
T11 construct: gene AKT3
Experimental: as §1

Fms = target: T12, Fms (Homo sapiens, UniProt P07333)
T12 construct: gene CSF1R
Experimental: as §1

PKCalpha = target: T13, PKCalpha (Homo sapiens, UniProt P17252)
T13 construct: gene PRKCA
Experimental: as §1

DYRK2 = target: T14, DYRK2 (Homo sapiens, UniProt Q92630)
T14 sequence (Q92630 1-601): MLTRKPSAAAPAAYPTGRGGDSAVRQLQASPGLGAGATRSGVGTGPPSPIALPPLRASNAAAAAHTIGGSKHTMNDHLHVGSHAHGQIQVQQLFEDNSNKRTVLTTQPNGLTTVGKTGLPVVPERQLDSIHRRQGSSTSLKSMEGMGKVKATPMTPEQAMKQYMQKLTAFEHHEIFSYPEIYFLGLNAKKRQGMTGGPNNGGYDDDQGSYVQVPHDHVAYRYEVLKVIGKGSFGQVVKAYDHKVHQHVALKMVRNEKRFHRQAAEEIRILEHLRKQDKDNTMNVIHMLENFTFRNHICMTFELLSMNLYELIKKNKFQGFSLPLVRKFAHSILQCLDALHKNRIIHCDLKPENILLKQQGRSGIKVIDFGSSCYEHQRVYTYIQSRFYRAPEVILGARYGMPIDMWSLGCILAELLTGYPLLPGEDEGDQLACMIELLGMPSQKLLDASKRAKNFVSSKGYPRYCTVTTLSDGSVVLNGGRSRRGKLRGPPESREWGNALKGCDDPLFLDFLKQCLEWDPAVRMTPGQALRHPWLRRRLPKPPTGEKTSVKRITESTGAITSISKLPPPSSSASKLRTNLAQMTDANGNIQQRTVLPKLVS
Experimental: as §1

MSK1 = target: T15, MSK1 (Homo sapiens, UniProt O75582)
T15 construct: gene RPS6KA5
Experimental: as §1

ASK1 = target: T16, ASK1 (Homo sapiens, UniProt Q99683)
T16 construct: gene MAP3K5
Experimental: as §1

IR = target: T17, IR (Homo sapiens, UniProt P06213)
T17 construct: gene INSR
Experimental: as §1

CDK1/cyclinB = CDK1/cyclinB (Homo sapiens, UniProt P06493)
Experimental: as §1

Ros = target: T18, Ros (Homo sapiens, UniProt P08922)
T18 construct: gene ROS1
Experimental: as §1

DDR2 = DDR2 (Homo sapiens, UniProt Q16832)
Experimental: as §1

AXL = AXL (Homo sapiens, UniProt P30530)
AXL, sequence (P30530 whole entry): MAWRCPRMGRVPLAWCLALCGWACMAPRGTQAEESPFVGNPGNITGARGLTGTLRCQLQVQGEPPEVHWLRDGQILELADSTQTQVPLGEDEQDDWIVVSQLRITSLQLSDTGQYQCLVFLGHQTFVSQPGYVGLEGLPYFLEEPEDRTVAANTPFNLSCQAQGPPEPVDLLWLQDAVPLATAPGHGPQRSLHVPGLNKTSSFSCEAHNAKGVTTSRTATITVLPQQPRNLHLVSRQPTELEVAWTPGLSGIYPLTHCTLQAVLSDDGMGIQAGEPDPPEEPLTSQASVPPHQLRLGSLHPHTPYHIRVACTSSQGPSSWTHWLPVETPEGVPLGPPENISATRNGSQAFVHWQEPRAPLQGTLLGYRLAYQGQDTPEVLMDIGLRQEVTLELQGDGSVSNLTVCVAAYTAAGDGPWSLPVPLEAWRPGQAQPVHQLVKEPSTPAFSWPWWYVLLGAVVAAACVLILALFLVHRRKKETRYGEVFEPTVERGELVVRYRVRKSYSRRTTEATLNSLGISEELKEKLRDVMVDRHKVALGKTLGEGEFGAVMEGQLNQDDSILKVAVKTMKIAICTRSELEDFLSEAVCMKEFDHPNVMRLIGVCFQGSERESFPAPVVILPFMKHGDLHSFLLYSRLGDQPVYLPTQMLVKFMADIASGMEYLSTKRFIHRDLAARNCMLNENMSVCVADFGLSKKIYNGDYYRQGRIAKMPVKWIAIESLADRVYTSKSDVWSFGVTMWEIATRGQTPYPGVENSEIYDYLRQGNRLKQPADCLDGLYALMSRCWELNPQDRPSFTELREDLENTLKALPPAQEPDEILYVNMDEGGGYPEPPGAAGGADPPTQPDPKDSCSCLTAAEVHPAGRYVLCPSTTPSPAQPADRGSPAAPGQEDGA
Experimental: as §1

TAK1 = target: T19, TAK1 (Homo sapiens, UniProt O43318)
T19 construct: gene MAP3K7
Experimental: as §1

Q: Which results are given for OCCn1cc(-c2cnc3nnn(Cc4ccc5ncccc5c4)c3n2)cn1 [METi, PF-04217903]?
A: inhibition at 1 µM (CAMKIIbeta): -6%; inhibition at 1 µM (Lyn): 2%; inhibition at 1 µM (MAPK2): -7%; inhibition at 1 µM (MLCK): -32%; inhibition at 1 µM (MEK1): -11%; inhibition at 1 µM (CDK7/cyclinH): -14%; inhibition at 1 µM (PKG1alpha): 3%; inhibition at 1 µM (PKBbeta): -6%; inhibition at 1 µM (IRAK4): 11%; inhibition at 1 µM (rat CK1delta): -4%; inhibition at 1 µM (SAPK4): -18%; inhibition at 1 µM (PKCtheta): -10%; inhibition at 1 µM (Aurora-A): -7%; inhibition at 1 µM (CDK3/cyclinE): 5%; inhibition at 1 µM (EPHB2): 53%; inhibition at 1 µM (FGR): 0%; inhibition at 1 µM (PKBgamma): 5%; inhibition at 1 µM (Fms): -12%; inhibition at 1 µM (PKCalpha): -7%; inhibition at 1 µM (DYRK2): -1%; inhibition at 1 µM (MSK1): -5%; inhibition at 1 µM (ASK1): -11%; inhibition at 1 µM (IR): 8%; inhibition at 1 µM (CDK1/cyclinB): -7%; inhibition at 1 µM (Ros): 0%; inhibition at 1 µM (DDR2): 0%; inhibition at 1 µM (AXL): -11%; inhibition at 1 µM (TAK1): -7%
